Experimental data taken from US6355619B1, “Peptide tumor cell growth inhibitors” (Board of Regents, The University of Texas System, priority 1996, dated 2002).
Read-outs that look alike come from different tables or passages of the source.

Legend:
[1] = test system: IL-8 receptors on neutrophils; assay: Inhibition of 125I-labeled IL-8 binding to human neutrophils
Description: Therefore, in pursuing this aim, the present inventors assayed various other peptide compositions for IL-8 inhibitory activity by screening a library of 400 groups of hexapeptides. In these screening assays, ^125I-labeled interleukin-8 (10^−12 M) was mixed with 100 μM peptide, then added to neutrophils and incubated at 4° C. for 90 min. The bound radioactivity was separated from unbound by centrifugation through a dense cushion of a mixture of paraffin and silicon oils and the ^125I bound to neutrophils was counted in a gamma radiation spectrometer, allowing the results to be expressed as the percent of IL-8 binding which was inhibited.
The use of human subjects for acquisition of neutrophils was approved by the Institutional Review Board for human experimentation. For the preparation of neutrophils, human blood was anticoagulated with heparin for enzyme release studies and with 0.33% sodium citrate for other studies. For chemotactic and enzyme release studies neutrophils were separated by dextran sedimentation and erythrocyte lysis by the method of Boyum (Kohler and Milstein, 1975). For binding studies and cytotoxic studies, the neutrophils were further purified in gradients of Percoll (Pharmacia Fine Chemicals, Piscataway, N.J.) to a purity of 90-93% (Kohler and Milstein, 1975).
Recombinant human IL-8 (72 amino acids; Pepro Tech Inc., Rocky Hill, N.J.) was radioactively labeled with ^125I by the chloramine T method of Hunter and Greenwood (Hunter and Greenwood, 1962). Binding studies were performed according to Besemer et al. (1989), as follows: Neutrophils in phosphate buffered saline pH 7.4 (PBS) containing 0.1% bovine serum albumin (BSA) were incubated with labeled ligand in the presence or absence of the peptide being tested for 90 min at 4° C. to reach equilibrium and then centrifuged at 12,000×g for 3 min in Beckman B microfuge (Beckman Instruments, Fullerton, Calif.), through a cushion consisting of a mixture of paraffin oil Fisher Scientific, Fair Lawn, N.J.) and silicon oil (Serva Co., N.Y., N.Y.). The pellet and supernatant were then counted in a gamma radiation spectrometer. The non-specific binding was estimated to measure the binding in the presence of 100-fold excess of non-labeled ligand. The binding constants were calculated using the computer programs Lundon I and Lundon II.
In these studies, a screening for inhibition was carried out at 100 μM concentration of the peptide being tested, with a 10^−12 M concentration of IL-8. In the first series of studies, twenty peptides were synthesized with the carboxyl-terminal residue of RRWWCX (SEQ ID NO:23) being changed to each of the standard protein amino acids in turn.

RPMI-7951 melanoma cells = assay: Binding of 125I-IL-8 to RPMI-7951 melanoma cells
Description: (§1) FIG. 12. The specificity of the receptor binding. The melanoma cells, Hs 294T (closed symbols) and RPMI-7951 (open symbols), were incubated with indicated concentrations of radiolabeled MGSA/GROα (circles) or IL-8 (triangles). The non-specific binding was estimated by the binding in the presence of 100 fold excess of unlabeled material. Specific binding which is calculated by subtracting non-specific binding from total binding is shown in this figure.
(§2) Binding studies with melanoma cell lines were performed by the method of Horuk and colleagues (Horuk et al., 1993). Briefly, the cells (1×10^5 cells/well) in 24-well plates were washed two times with Hank's Balanced Salt Solution and incubated with ^125I-labeled MGSA/GROα or IL-8 in the buffer containing 1% bovine serum albumin at 4° C. for 3 hr. The incubation was terminated by vacuum aspiration of the supernatant. The cells were washed three times in binding buffer, solubilized by the addition of 200 μl of 1% SDS, and transferred to vials for counting. The non-specific binding was estimated by measuring the binding in the presence of 100-fold excess of non-labeled ligand. The binding parameters were calculated using the Lundon II computer program (Lundon Software Inc., Chagrin Falls, Ohio).

Hs 294T melanoma cells = assay: Binding of 125I-IL-8 to Hs 294T melanoma cells; design: species or system human
Description: as §1, §2

[2] = IL-8 alone, binding inhibition curves, Lundon II

IL-8: Recombinant human IL-8 (72 amino acids; Pepro Tech Inc.), radiolabeled ligand [reference compound]
Bmax of IL-8, one-site model ([1]; 0 μM peptide, binding isotherms, Lundon I): 174.2 ± 14.5 fmole/10^6 cells | Kd ([1]; 0 μM peptide, binding isotherms, Lundon I, read-out: Kd of IL-8, one-site model): 1.3 ± 0.2 nM | Receptor 1 Bmax of IL-8 [1, 2]: 38.8 ± 0.6 fmole/10^6 cells | Receptor 2 Bmax of IL-8 [1, 2]: 68.8 ± 0.7 fmole/10^6 cells | Kd ([1]; IL-8 alone, binding inhibition curves, Lundon II, read-out: Receptor 1 Kd of IL-8): 0.03 nM | Kd ([1]; IL-8 alone, binding inhibition curves, Lundon II, read-out: Receptor 2 Kd of IL-8): 0.67 ± 0.04 nM | specific binding of IL-8 to melanoma cells (RPMI-7951 melanoma cells): no specific binding | specific binding of IL-8 to melanoma cells (Hs 294T melanoma cells): no specific binding
